Data as given in patent US9440978B2, “Imidazolo-, oxazolo-, and thiazolopyrimidine modulators of TRPV1” (Janssen Pharmaceutica NV, priority 2007, dated 2016).
Structures can show the parent of a compound that is named as a salt.

What was measured:
human TRPV1 = target: T1, human TRPV1 (Homo sapiens, UniProt Q8NER1); test: Block of capsaicin-induced Ca2+ influx, human assay (hTRPV1/HEK293, FLIPR); assay type: cell-based; details: HEK293 cells transfected with human TRPV1; 150 nM capsaicin challenge; mean; > value = solubility limit in assay medium
T1 construct: expressed in transfected cells; host or cells: HEK293
T1 sequence (Q8NER1 whole entry): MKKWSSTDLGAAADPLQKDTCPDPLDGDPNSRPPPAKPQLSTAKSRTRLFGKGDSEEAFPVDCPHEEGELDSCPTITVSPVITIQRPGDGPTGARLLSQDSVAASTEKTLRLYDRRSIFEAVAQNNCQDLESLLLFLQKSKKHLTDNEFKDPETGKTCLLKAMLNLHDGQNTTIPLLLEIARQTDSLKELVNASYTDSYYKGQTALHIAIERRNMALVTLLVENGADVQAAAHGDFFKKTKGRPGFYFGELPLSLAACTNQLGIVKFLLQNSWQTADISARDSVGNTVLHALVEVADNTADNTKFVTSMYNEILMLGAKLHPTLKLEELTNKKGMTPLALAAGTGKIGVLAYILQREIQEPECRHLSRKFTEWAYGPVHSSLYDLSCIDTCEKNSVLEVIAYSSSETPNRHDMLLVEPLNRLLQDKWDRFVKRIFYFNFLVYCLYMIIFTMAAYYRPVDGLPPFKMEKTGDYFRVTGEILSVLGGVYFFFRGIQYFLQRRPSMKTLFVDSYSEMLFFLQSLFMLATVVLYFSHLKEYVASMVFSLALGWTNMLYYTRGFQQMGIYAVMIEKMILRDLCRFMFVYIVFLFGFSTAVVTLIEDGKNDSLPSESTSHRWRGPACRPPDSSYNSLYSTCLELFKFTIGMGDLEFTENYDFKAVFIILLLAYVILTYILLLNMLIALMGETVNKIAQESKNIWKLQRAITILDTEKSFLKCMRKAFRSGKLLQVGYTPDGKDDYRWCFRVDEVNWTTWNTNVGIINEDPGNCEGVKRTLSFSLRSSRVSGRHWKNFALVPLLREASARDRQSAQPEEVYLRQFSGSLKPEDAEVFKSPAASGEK
Experimental: (§1) HEK293 cells were transfected with human TRPV1 cloned in pcDNA3.1zeo(+) using the Effectene non-liposomal lipid based transfection kit (Qiagen) (hTRPV1/HEK293). hTRPV1/HEK293 cells were routinely grown as monolayers under selection in zeocin (200 μg/mL; Invitrogen) in Dulbecco's Modified Eagle Medium (DMEM, Gibco BRL) supplemented with 10% fetal bovine serum, and penicillin/streptomycin (50 units/mL) in 5% CO2 at 37° C. Cells were passaged frequently, every 3-5 days, to avoid overgrowth, depletion of essential medium components, or acidic medium exposure. Cells were passaged using a brief wash in 0.05% trypsin with 1 mM EDTA, followed by dissociation in divalent-free phosphate-buffered saline (Hyclone #SH30028.02). […] The assay buffer was composed of 130 mM NaCl, 2 mM KCl, 2 mM MgCl2, 10 mM HEPES, 5 mM glucose, and either 2 mM or 20 μM CaCl2. On the day of the experiment, the culture medium was replaced with 2 mM calcium assay buffer using an automated plate washer (ELx405; Biotek, VT). […] After loading the cells, the dye solution was replaced with 50 μL/well of 20 μM calcium assay buffer using the ELx405 plate washer. Test compounds (50 μL/well) were added to the plate and incubated for 30 min. Intracellular Ca^2+ levels were subsequently assayed using a Fluorometric Imaging Plate Reader (FLIPR™ instrument, Molecular Devices, CA) to simultaneously monitor Fluo-3 fluorescence in all wells (λexcitation=488 nm, λemission=540 nm) during challenge with agonist (capsaicin). The IC50 values were determined. […] The contents of the wells were mixed 3 times (40 μL mix volume) immediately after the additions were made. Concentration-dependence of block was determined by exposing each well of cells in duplicate rows of a 96-well plate to a serial dilution of test compound. The concentration series usually started at 10 μM with a three-fold serial decrement in concentration. The magnitude of the capsaicin response was determined by measuring the change in fluo3 fluorescence before and 100 seconds after the addition of the agonist. Data were analyzed using a non-linear regression program (Origin; OriginLab, MA).
(§2) IC50 values shown are the average (mean) of the results obtained. […] Compounds were tested as in the free base, trifluoroacetic acid salt, or hydrochloride salt form.

rat TRPV1 = target: T2, rat TRPV1 (Rattus norvegicus, UniProt O35433); test: Block of capsaicin-induced Ca2+ influx, rat assay (rTRPV1/HEK293, FLIPR); assay type: cell-based; details: HEK293 cells transfected with rat TRPV1; capsaicin challenge; mean; > value = solubility limit in assay medium; read-out: Rat IC50
T2 construct: expressed in transfected cells; host or cells: HEK293
T2 sequence (O35433 whole entry): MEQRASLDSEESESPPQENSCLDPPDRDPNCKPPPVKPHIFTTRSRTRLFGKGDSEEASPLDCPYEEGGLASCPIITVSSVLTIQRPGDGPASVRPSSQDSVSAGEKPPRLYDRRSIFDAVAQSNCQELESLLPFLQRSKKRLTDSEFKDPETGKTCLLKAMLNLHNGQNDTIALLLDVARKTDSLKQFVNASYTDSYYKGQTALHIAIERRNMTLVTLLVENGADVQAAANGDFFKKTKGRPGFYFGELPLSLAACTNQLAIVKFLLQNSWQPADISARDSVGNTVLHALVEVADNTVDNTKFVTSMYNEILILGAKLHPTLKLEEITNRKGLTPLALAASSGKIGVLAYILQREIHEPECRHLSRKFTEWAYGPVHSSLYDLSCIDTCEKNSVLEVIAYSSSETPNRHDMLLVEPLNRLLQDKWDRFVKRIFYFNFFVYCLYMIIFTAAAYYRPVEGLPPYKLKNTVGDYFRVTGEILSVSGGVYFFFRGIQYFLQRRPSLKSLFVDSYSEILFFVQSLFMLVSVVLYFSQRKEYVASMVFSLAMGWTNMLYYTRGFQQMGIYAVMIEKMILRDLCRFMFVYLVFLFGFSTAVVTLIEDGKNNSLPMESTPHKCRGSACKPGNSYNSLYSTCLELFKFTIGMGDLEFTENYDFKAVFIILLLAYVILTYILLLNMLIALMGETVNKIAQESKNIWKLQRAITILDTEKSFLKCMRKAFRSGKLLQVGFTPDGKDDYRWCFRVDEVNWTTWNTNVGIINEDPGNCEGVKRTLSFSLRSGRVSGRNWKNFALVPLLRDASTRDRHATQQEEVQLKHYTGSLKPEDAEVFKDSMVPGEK
Experimental: as §1
This assay was performed similarly to the human assay described above, but using HEK293 cells transfected with rat TRPV1 (rTRPV1/HEK293).
as §2

Row | IC50 (human TRPV1) [nM] | IC50 (rat TRPV1) [nM] | Compound
1 | 8900 | 4490 | CC(C)(C(N)=O)c1ccc(Nc2ncnc3sc(Cc4c(Cl)cccc4Cl)nc23)cc1 [Example 47, 2-(4-{[2-(2,6-Dichlorobenzyl)[1,3]thiazolo[5,4-d]pyrimidin-7-yl]amino}phenyl)-2-methylpropanamide]
2 | 852 | 410 | FC(F)(F)c1ccccc1Cc1nc2c(Nc3ccccc3)ncnc2s1 [Example 48, N-Phenyl-2-[2-(trifluoromethyl)benzyl][1,3]thiazolo[5,4-d]pyrimidin-7-amine]
3 | 59 | 16 | FC(F)(F)c1ccccc1Cc1nc2c(Nc3ccc(Br)cc3)ncnc2s1 [Example 49, N-(4-Bromophenyl)-2-[2-(trifluoromethyl)benzyl][1,3]thiazolo[5,4-d]pyrimidin-7-amine]
4 | 34 | 6 | CC(C)(C)c1ccc(Nc2ncnc3sc(Cc4ccccc4C(F)(F)F)nc23)cc1 [Example 50, N-(4-tert-Butylphenyl)-2-[2-(trifluoromethyl)benzyl][1,3]thiazolo[5,4-d]pyrimidin-7-amine]
5 | 202 | 39 | CS(=O)(=O)c1ccc(Nc2ncnc3sc(Cc4ccccc4C(F)(F)F)nc23)cc1 [Example 51, N-[4-(Methylsulfonyl)phenyl]-2-[2-(trifluoromethyl)benzyl][1,3]thiazolo[5,4-d]pyrimidin-7-amine]
6 | 59 | 44 | O=S(=O)(c1ccc(Nc2ncnc3sc(Cc4ccccc4C(F)(F)F)nc23)cc1)N1CCOCC1 [Example 52, N-[4-(Morpholin-4-ylsulfonyl)phenyl]-2-[2-(trifluoromethyl)benzyl][1,3]thiazolo[5,4-d]pyrimidin-7-amine]
7 | 336 | 118 | FC(F)(F)c1ccc(Nc2ncnc3sc(Cc4cccc(Cl)c4)nc23)cn1 [Example 53, 2-(3-Chlorobenzyl)-N-[6-(trifluoromethyl)pyridin-3-yl][1,3]thiazolo[5,4-d]pyrimidin-7-amine]
8 | 252 | 88 | FC(F)(F)c1ccc(Nc2ncnc3sc(Cc4cccc(Cl)c4)nc23)cc1 [Example 54, 2-(3-Chlorobenzyl)-N-[4-(trifluoromethyl)phenyl][1,3]thiazolo[5,4-d]pyrimidin-7-amine]
9 | 3440 | 2860 | Cc1cccc(C)c1Cc1nc2c(Nc3ccccc3)ncnc2s1 [Example 55, 2-(2,6-Dimethylbenzyl)-N-phenyl[1,3]thiazolo[5,4-d]pyrimidin-7-amine]
10 | 714 | 475 | Cc1cccc(C)c1Cc1nc2c(Nc3ccc(Br)cc3)ncnc2s1 [Example 56, N-(4-Bromophenyl)-2-(2,6-dimethylbenzyl)[1,3]thiazolo[5,4-d]pyrimidin-7-amine]
11 | 252 | 51 | Cc1cccc(C)c1Cc1nc2c(Nc3ccc(C(C)(C)C)cc3)ncnc2s1 [Example 57, N-(4-tert-Butylphenyl)-2-(2,6-dimethylbenzyl)[1,3]thiazolo[5,4-d]pyrimidin-7-amine]
12 | 75 | 82 | Cc1cccc(C)c1Cc1nc2c(Nc3ccc(C(F)(F)F)cc3)ncnc2s1 [Example 58, 2-(2,6-Dimethylbenzyl)-N-[4-(trifluoromethyl)phenyl][1,3]thiazolo[5,4-d]pyrimidin-7-amine]
13 | 139 | 183 | Cc1cccc(C)c1Cc1nc2c(Nc3ccc(C(F)(F)F)nc3)ncnc2s1 [Example 59, 2-(2,6-Dimethylbenzyl)-N-[6-(trifluoromethyl)pyridin-3-yl][1,3]thiazolo[5,4-d]pyrimidin-7-amine]
14 | 209 | 204 | Cc1cccc(C)c1Cc1nc2c(Nc3ccc(S(=O)(=O)N4CCOCC4)cc3)ncnc2s1 [Example 60, 2-(2,6-Dimethylbenzyl)-N-[4-(morpholin-4-ylsulfonyl)phenyl][1,3]thiazolo[5,4-d]pyrimidin-7-amine]
15 | 496 | 253 | Cc1cccc(C)c1Cc1nc2c(Nc3ccc(S(C)(=O)=O)cc3)ncnc2s1 [Example 61, 2-(2,6-Dimethylbenzyl)-N-[4-(methylsulfonyl)phenyl][1,3]thiazolo[5,4-d]pyrimidin-7-amine]
16 | 72 | 32 | CS(=O)(=O)c1nc(Nc2ccc(C(F)(F)F)cc2)c2nc(Cc3c(Cl)cccc3Cl)sc2n1 [Example 62, [2-(2,6-Dichloro-benzyl)-5-methanesulfonyl-thiazolo[5,4-d]pyrimidin-7-yl]-(4-trifluoromethyl-phenyl)-amine]
17 | > 6670 | 3560 | FC(F)(F)c1ccc(Nc2nc(N3CCOCC3)nc3sc(Cc4c(Cl)cccc4Cl)nc23)cc1 [Example 63, [2-(2,6-Dichloro-benzyl)-5-morpholin-4-yl-thiazolo[5,4-d]pyrimidin-7-yl]-(4-trifluoromethyl-phenyl)-amine]
18 | 466 | 323 | CC1CCCN1c1nc(Nc2ccc(C(F)(F)F)cc2)c2nc(Cc3c(Cl)cccc3Cl)sc2n1 (stereo not drawn) [Example 64, [2-(2,6-Dichloro-benzyl)-5-(2-methyl-pyrrolidin-1-yl)-thiazolo[5,4-d]pyrimidin-7-yl]-(4-trifluoromethyl-phenyl)-amine]
19 | 461 | 266 | FC(F)(F)c1ccc(Nc2nc(NCCN3CCOCC3)nc3sc(Cc4c(Cl)cccc4Cl)nc23)cc1 [Example 65, 2-(2,6-Dichloro-benzyl)-N^5-(2-morpholin-4-yl-ethyl)-N^7-(4-trifluoromethyl-phenyl)-thiazolo[5,4-d]pyrimidine-5,7-diamine trifluoroacetic acid salt]
20 | 249 | 103 | FC(F)(F)c1ccc(Nc2nc(NCC3CC3)nc3sc(Cc4c(Cl)cccc4Cl)nc23)cc1 [Example 66, N^5-Cyclopropylmethyl-2-(2,6-dichloro-benzyl)-N^7-(4-trifluoromethyl-phenyl)-thiazolo[5,4-d]pyrimidine-5,7-diamine]
21 | 2320 | 1690 | CC(C)C1CCCN1c1nc(Nc2ccc(C(F)(F)F)cc2)c2nc(Cc3c(Cl)cccc3Cl)sc2n1 (stereo not drawn) [Example 68, [2-(2,6-Dichloro-benzyl)-5-(2-isopropyl-pyrrolidin-1-yl)-thiazolo[5,4-d]pyrimidin-7-yl]-(4-trifluoromethyl-phenyl)-amine]
22 | 31 | 14 | CC(C)CNc1nc(Nc2ccc(C(F)(F)F)cc2)c2nc(Cc3c(Cl)cccc3Cl)sc2n1 [Example 69, 2-(2,6-Dichloro-benzyl)-N^5-isobutyl-N^7-(4-trifluoromethyl-phenyl)-thiazolo[5,4-d]pyrimidine-5,7-diamine]
23 | 310 | 74 | FC(F)(F)c1ccc(Nc2nc(N3CCN(C4CCCC4)CC3)nc3sc(Cc4c(Cl)cccc4Cl)nc23)cc1 [Example 76, [5-(4-Cyclopentyl-piperazin-1-yl)-2-(2,6-dichloro-benzyl)-thiazolo[5,4-d]pyrimidin-7-yl]-(4-trifluoromethyl-phenyl)-amine trifluoroacetic acid salt]
24 | 1120 | 4340 | FC(F)(F)c1ccc(Nc2nc(N3CCC(N4CCCC4)CC3)nc3sc(Cc4c(Cl)cccc4Cl)nc23)cc1 [Example 77, [2-(2,6-Dichloro-benzyl)-5-(4-pyrrolidin-1-yl-piperidin-1-yl)-thiazolo[5,4-d]pyrimidin-7-yl]-(4-trifluoromethyl-phenyl)-amine trifluoroacetic acid salt]
25 | 316 | 215 | FC(F)(F)c1ccc(Nc2nc(NC3CC3)nc3sc(Cc4c(Cl)cccc4Cl)nc23)cc1 [Example 78, N^5-Cyclopropyl-2-(2,6-dichloro-benzyl)-N^7-(4-trifluoromethyl-phenyl)-thiazolo[5,4-d]pyrimidine-5,7-diamine]
26 | 104 | 32 | FC(F)(F)c1ccc(Nc2nc(NC3CCC3)nc3sc(Cc4c(Cl)cccc4Cl)nc23)cc1 [Example 79, N^5-Cyclobutyl-2-(2,6-dichloro-benzyl)-N^7-(4-trifluoromethyl-phenyl)-thiazolo[5,4-d]pyrimidine-5,7-diamine]

Row | Compound | IC50 (human TRPV1) [nM] | IC50 (rat TRPV1) [nM]
27 | Cc1ccc(Nc2ncnc3sc(Cc4c(Cl)cccc4Cl)nc23)cc1 [Example 46, 2-(2,6-Dichlorobenzyl)-N-(4-methylphenyl)[1,3]thiazolo[5,4-d]pyrimidin-7-amine] | > 6670 | 52
